Measured values taken from ChEMBL document CHEMBL4507273 (2021).

Legend:
[1] = biological target: D(4) dopamine receptor (Homo sapiens) (UniProt P21917); conditions: Compound concentration 10.0 uM
[2] = biological target: Serine/threonine-protein kinase 3 (Homo sapiens) (UniProt Q13188); conditions: Compound concentration 1000.0 nM
[3] = biological target: Rho-associated protein kinase 2 (Homo sapiens) (UniProt O75116); conditions: Compound concentration 1000.0 nM
[4] = biological target: Serine/threonine-protein kinase Sgk3 (Homo sapiens) (UniProt Q96BR1); conditions: Compound concentration 1000.0 nM
[5] = biological target: Tyrosine-protein kinase ABL2 (Homo sapiens) (UniProt P42684); conditions: Compound concentration 1000.0 nM
[6] = biological target: Mitogen-activated protein kinase 4 (Homo sapiens) (UniProt P31152); conditions: Compound concentration 1000.0 nM
Chain of Mitogen-activated protein kinase 4 (Homo sapiens) (P31152 whole entry): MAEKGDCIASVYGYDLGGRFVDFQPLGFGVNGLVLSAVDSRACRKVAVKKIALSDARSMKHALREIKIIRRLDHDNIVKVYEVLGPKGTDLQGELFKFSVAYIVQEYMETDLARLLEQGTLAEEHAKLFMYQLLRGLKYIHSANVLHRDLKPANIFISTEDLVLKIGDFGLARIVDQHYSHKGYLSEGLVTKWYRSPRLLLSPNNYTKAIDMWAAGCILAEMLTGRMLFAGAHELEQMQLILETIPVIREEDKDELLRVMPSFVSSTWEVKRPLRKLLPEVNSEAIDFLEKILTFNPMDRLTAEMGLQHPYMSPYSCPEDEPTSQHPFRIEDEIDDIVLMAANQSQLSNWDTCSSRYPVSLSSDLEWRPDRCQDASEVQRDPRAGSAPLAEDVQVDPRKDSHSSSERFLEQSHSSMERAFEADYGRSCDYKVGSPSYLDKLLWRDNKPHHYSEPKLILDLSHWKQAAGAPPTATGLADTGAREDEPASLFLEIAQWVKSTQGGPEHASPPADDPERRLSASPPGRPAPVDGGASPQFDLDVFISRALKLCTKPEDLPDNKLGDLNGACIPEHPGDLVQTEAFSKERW

[7] = biological target: Serine/threonine-protein kinase Nek11 (Homo sapiens) (UniProt Q8NG66); conditions: Compound concentration 1000.0 nM
[8] = biological target: Cyclin-dependent kinase 13 (Homo sapiens) (UniProt Q14004); conditions: Compound concentration 1000.0 nM
[9] = biological target: Fibroblast growth factor receptor 4 (Homo sapiens) (UniProt P22455); conditions: Compound concentration 1000.0 nM
Mu-type opioid receptor = Mu-type opioid receptor (Homo sapiens, UniProt P35372); conditions: Compound concentration 10.0 uM
[10] = biological target: Ephrin type-B receptor 1 (Homo sapiens) (UniProt P54762); conditions: Compound concentration 1000.0 nM
[11] = biological target: T1, 5-hydroxytryptamine receptor 2C (Homo sapiens, UniProt P28335); test: GPCRScan assay: inhibition of 5-HT2C; design: radioligand conc. used [nm] 1.0 – 2.5, parental cells HEK T
T1 sequence (P28335 whole entry): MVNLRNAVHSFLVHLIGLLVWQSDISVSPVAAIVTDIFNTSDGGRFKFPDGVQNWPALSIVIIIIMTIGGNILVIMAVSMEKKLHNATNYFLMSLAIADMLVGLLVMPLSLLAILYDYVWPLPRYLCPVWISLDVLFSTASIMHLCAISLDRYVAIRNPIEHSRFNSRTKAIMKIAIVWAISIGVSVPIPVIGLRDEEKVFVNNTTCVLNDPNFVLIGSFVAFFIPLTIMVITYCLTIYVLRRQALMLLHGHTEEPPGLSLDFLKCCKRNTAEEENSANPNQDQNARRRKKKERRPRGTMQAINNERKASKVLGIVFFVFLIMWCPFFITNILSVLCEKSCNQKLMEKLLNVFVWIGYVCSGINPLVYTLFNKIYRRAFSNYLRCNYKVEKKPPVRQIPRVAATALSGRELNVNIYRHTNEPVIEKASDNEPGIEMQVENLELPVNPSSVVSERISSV

[12] = biological target: Homeodomain-interacting protein kinase 1 (Homo sapiens) (UniProt Q86Z02); conditions: Compound concentration 1000.0 nM
[13] = biological target: Hepatocyte growth factor receptor (Homo sapiens) (UniProt P08581); conditions: Compound concentration 1000.0 nM
Chain of Hepatocyte growth factor receptor (Homo sapiens) (P08581 whole entry): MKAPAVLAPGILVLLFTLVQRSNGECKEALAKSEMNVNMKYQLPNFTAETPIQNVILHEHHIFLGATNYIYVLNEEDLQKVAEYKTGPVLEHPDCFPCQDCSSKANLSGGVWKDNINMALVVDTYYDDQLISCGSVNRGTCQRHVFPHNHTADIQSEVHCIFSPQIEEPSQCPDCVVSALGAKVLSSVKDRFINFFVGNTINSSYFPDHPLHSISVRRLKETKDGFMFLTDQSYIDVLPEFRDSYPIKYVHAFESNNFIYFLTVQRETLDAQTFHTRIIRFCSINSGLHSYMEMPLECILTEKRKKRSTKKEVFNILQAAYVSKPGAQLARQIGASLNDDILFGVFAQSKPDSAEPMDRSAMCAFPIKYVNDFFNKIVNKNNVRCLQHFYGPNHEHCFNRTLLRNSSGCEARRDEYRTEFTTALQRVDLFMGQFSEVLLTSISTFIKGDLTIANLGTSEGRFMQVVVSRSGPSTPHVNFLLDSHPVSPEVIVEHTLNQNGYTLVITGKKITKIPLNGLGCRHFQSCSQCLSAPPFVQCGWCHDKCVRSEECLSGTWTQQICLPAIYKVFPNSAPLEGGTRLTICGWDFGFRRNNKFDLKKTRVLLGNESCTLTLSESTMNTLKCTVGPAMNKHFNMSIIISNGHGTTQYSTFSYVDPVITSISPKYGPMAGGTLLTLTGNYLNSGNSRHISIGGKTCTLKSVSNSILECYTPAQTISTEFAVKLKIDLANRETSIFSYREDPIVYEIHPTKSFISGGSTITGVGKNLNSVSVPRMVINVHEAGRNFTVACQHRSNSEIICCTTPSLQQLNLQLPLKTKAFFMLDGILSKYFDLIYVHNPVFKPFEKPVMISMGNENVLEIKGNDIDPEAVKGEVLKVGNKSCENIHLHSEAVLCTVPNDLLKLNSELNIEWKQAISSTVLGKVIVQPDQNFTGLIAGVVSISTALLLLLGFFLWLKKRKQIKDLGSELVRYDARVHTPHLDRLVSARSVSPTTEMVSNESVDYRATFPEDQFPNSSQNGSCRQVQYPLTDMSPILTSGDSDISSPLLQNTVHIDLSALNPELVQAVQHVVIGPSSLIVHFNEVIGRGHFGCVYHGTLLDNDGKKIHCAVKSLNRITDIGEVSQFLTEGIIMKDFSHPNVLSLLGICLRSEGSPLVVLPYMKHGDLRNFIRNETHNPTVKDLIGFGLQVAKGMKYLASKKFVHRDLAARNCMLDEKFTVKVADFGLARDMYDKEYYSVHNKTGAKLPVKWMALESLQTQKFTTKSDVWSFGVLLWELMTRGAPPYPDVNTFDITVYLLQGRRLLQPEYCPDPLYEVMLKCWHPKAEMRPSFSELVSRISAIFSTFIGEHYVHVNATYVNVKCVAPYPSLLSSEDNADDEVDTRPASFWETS

[14] = biological target: Fibroblast growth factor receptor 1 (Homo sapiens) (UniProt P11362); conditions: Compound concentration 1000.0 nM
[15] = biological target: cGMP-dependent protein kinase 1 (Homo sapiens) (UniProt Q13976); conditions: Compound concentration 1000.0 nM
[16] = biological target: Ribosomal protein S6 kinase alpha-3 (Homo sapiens) (UniProt P51812); conditions: Compound concentration 1000.0 nM
[17] = system: Mast/stem cell growth factor receptor Kit (Homo sapiens), P10721 [L576P]; conditions: Compound concentration 1000.0 nM
[18] = biological target: T2, Muscarinic acetylcholine receptor M1 (Homo sapiens) (UniProt P11229); conditions: Compound concentration 10.0 uM
T2 sequence (whole entry): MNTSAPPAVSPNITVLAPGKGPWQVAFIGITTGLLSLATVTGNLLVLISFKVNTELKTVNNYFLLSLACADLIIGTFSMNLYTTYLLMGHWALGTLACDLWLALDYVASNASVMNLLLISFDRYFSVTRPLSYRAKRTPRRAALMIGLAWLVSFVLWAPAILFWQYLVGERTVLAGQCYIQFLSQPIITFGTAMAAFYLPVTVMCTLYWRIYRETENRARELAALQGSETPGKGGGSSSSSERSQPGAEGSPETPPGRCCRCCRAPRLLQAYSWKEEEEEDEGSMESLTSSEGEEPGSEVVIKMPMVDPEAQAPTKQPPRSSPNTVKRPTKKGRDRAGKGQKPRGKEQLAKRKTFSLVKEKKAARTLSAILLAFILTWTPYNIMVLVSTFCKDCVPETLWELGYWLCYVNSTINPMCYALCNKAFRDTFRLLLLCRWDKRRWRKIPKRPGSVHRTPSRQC

[19] = system: Tyrosine-protein kinase ABL1 (Homo sapiens), P00519 [M351T]; conditions: Compound concentration 1000.0 nM
[20] = biological target: T3, Alpha-2C adrenergic receptor (Homo sapiens) (UniProt P18825); conditions: Compound concentration 10.0 uM
T3 sequence (whole entry): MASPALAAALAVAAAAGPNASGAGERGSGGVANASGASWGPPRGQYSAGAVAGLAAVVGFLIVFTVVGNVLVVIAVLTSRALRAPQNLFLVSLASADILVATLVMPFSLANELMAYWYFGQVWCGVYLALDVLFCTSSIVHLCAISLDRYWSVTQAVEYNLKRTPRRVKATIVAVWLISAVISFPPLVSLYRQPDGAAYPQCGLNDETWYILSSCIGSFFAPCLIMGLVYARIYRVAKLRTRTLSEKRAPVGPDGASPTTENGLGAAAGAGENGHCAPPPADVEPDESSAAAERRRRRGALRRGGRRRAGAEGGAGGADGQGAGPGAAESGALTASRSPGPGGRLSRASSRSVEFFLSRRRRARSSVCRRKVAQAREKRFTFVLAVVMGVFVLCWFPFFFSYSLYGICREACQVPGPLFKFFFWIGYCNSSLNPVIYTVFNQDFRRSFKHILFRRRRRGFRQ

D(3) dopamine receptor = D(3) dopamine receptor (Homo sapiens, UniProt P35462); conditions: Compound concentration 10.0 uM
[21] = biological target: Microtubule-associated serine/threonine-protein kinase 1 (Homo sapiens) (UniProt Q9Y2H9); conditions: Compound concentration 1000.0 nM
[22] = biological target: Serine/threonine-protein kinase 38 (Homo sapiens) (UniProt Q15208); conditions: Compound concentration 1000.0 nM
Chain of Serine/threonine-protein kinase 38 (Homo sapiens) (Q15208 2-465 limits assumed): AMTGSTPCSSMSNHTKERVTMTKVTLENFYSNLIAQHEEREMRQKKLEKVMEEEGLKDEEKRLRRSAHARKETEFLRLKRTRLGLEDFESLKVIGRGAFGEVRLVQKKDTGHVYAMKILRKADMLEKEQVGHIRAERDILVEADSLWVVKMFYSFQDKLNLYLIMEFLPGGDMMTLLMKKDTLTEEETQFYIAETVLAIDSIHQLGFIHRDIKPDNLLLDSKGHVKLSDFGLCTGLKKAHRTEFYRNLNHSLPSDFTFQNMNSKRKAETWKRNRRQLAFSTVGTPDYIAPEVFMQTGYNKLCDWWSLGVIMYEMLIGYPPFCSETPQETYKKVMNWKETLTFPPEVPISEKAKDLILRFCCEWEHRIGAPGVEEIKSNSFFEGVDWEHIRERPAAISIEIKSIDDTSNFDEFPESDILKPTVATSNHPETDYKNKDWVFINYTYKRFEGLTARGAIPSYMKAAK

[23] = biological target: Non-receptor tyrosine-protein kinase TNK1 (Homo sapiens) (UniProt Q13470); conditions: Compound concentration 1000.0 nM
[24] = biological target: Cyclin-dependent kinase-like 2 (Homo sapiens) (UniProt Q92772); conditions: Compound concentration 1000.0 nM
Chain of Cyclin-dependent kinase-like 2 (Homo sapiens) (Q92772 whole entry): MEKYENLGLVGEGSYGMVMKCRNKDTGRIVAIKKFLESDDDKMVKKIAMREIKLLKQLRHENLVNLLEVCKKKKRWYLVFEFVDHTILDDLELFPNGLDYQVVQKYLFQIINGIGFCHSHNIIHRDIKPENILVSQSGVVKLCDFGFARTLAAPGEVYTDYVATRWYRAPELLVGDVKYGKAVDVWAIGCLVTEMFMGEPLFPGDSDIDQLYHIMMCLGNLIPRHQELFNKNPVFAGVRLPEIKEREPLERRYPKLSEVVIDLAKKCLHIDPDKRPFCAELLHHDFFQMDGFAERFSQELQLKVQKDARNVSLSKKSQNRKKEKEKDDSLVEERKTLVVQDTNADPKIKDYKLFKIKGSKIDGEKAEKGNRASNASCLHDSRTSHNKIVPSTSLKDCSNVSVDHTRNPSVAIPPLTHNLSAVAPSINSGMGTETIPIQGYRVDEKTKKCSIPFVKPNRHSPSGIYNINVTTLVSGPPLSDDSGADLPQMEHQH

[25] = biological target: Tyrosine-protein kinase Fer (Homo sapiens) (UniProt P16591); conditions: Compound concentration 1000.0 nM
Chain of Tyrosine-protein kinase Fer (Homo sapiens) (P16591 whole entry, looked up): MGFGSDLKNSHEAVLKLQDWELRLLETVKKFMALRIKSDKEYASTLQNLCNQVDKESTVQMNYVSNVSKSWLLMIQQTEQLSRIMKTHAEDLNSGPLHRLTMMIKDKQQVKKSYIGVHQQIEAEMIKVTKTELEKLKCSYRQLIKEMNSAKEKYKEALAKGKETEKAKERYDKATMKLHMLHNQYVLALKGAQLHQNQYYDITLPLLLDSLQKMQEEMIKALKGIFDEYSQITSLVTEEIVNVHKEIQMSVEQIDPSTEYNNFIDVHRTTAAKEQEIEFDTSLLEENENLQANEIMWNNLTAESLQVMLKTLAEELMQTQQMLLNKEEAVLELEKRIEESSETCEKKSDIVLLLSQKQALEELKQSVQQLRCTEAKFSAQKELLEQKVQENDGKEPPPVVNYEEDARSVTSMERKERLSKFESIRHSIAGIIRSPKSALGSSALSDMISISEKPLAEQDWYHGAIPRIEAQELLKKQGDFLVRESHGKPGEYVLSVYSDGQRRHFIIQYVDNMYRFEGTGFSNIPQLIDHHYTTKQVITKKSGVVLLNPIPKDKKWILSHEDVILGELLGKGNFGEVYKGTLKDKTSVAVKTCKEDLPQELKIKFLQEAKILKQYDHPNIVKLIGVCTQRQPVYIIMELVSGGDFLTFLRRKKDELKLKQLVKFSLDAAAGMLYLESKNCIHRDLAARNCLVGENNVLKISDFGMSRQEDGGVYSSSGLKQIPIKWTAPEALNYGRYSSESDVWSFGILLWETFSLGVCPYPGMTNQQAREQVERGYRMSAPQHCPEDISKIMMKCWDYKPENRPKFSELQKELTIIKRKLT

Chain of Serine/threonine-protein kinase 3 (Homo sapiens) (Q13188 whole entry): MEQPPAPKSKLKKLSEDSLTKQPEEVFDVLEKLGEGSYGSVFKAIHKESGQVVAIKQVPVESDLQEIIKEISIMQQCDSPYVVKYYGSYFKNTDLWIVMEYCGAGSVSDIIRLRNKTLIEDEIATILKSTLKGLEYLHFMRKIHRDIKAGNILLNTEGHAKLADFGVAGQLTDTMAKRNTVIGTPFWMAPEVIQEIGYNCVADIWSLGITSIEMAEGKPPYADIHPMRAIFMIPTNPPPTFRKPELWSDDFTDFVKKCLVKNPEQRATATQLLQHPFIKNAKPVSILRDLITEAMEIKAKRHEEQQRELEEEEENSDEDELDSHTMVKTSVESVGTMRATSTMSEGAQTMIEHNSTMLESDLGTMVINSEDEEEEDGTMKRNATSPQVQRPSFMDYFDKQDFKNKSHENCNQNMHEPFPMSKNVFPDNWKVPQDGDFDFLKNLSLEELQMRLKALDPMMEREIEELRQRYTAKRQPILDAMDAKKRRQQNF
Chain of D(4) dopamine receptor (Homo sapiens) (P21917 whole entry): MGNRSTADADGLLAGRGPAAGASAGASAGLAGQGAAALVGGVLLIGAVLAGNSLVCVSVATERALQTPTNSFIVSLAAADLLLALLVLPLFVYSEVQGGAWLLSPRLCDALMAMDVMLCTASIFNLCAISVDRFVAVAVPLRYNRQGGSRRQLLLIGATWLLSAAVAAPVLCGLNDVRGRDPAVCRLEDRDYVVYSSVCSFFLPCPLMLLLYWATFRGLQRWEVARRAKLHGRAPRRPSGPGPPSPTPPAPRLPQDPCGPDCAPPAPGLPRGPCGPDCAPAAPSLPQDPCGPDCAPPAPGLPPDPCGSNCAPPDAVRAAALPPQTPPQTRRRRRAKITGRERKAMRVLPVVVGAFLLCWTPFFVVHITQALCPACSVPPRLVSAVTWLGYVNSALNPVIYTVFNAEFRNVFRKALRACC

Compound CNCc1ccccc1-c1csc([C@@H](C)Nc2nc(C)nc3cc(OC)c(OC)cc23)c1 [BAY-293] has an inhibition [1] of 56.7%, a residual activity [2] of 85% and a residual activity [3] of 93%. It also gave a residual activity [4] of 78%, a residual activity [5] of 100% and a residual activity [6] of 94%. For the same compound, the residual activity [7] was 100%, the residual activity [8] was 89% and the residual activity [9] was 100%. For the same compound, the inhibition (Mu-type opioid receptor) was 46.8%, the residual activity [10] was 100% and the Ki ([11]; read-out: Ki) was 3400 nM. It also gave a Ki ([11]; read-out: pKi (converted)) of 2880 nM, a residual activity [12] of 78% and a residual activity [13] of 95%. The residual activity [14] was 100%, the residual activity [15] was 100% and the residual activity [16] was 80%. It also gave a residual activity [17] of 92%, an inhibition [18] of 88.8% and a residual activity [19] of 74%. The inhibition [20] was 94.2%, the inhibition (D(3) dopamine receptor) was 56.8% and the residual activity [21] was 76%. The residual activity [22] was 60%, the residual activity [23] was 64% and the residual activity [24] was 99%. The residual activity [25] was 100%.

With CNCc1ccccc1-c1csc([C@H](C)Nc2nc(C)nc3cc(OC)c(OC)cc23)c1 [BAY-294] the inhibition [1] was 31%, the residual activity [2] was 89% and the residual activity [3] was 100%. The residual activity [4] was 93%, the residual activity [5] was 100% and the residual activity [6] was 95%. It also gave a residual activity [7] of 100%, a residual activity [8] of 93% and a residual activity [9] of 100%. It also gave an inhibition (Mu-type opioid receptor) of 67.3%, a residual activity [10] of 100% and a Ki ([11]; read-out: Ki) of 706 nM. For the same compound, the Ki ([11]; read-out: pKi (converted)) was 692 nM, the residual activity [12] was 79% and the residual activity [13] was 100%. It also gave a residual activity [14] of 100%, a residual activity [15] of 100% and a residual activity [16] of 100%. For the same compound, the residual activity [17] was 100%, the inhibition [18] was 89.1% and the residual activity [19] was 85%. It also gave an inhibition [20] of 94.2%, an inhibition (D(3) dopamine receptor) of 64.8% and a residual activity [21] of 96%. It also gave a residual activity [22] of 87%, a residual activity [23] of 85% and a residual activity [24] of 100%. The residual activity [25] was 100%.
